Data as given in ChEMBL document CHEMBL1201862, “PubChem BioAssay data set” (2004).
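A five-concentration, 48-hour dose response in 96-well plates underlies each endpoint, interpolated linearly between surrounding concentrations. Here, GI50 denotes the concentration required for 50% inhibition of growth.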 Active and inactive are the calls of the source. Cut-off read from the data, not from the text of the source: active = GI50 up to about 1.1 µM and inactive = higher.

How the values were obtained:
Assay in all cases: inhibition of tumour cell growth, NCI panel, 48 h
[1] = test system: HOP-18
[2] = test system: XF498
[3] = test system: DLD-1
[4] = test system: DMS-273
[5] = test system: DMS-114
[6] = test system: KM-20L2
[7] = test system: LXFL 529
[8] = test system: SNB-78
[9] = test system: RXF 631

**Q.** What does the source list for `C/C(=C\Cc1cc(O)ccc1O)CCc1c(C)c(O)c(O)c(C=O)c1C` [PANICEIN C]?
**A.** GI50 [1]: 18.7 µM (inactive); GI50 [2]: 20 µM (inactive); GI50 [3]: 21.1 µM (inactive); GI50 [4]: 27.5 µM (inactive); GI50 [5]: 18 µM (inactive); GI50 [6]: 37.5 µM (inactive); GI50 [7]: 9.64 µM (inactive)

**Q.** For `[N-]=[N+]=NCC(O)Cn1cnc2c(NC(=O)c3ccccc3)ncnc21` (centres undefined), which GI50 [1] is on record?
**A.** Its GI50 is > 100 µM (inactive).

**Q.** What about the GI50 [8] of the same compound?
**A.** The GI50 was > 100 µM (inactive).

**Q.** What about the GI50 [2] of the same compound?
**A.** Its GI50 is > 100 µM (inactive).

**Q.** And the GI50 [3]?
**A.** The GI50 was > 100 µM (inactive).

**Q.** What about the GI50 [4] of the same compound?
**A.** The GI50 was 64.4 µM (inactive).

**Q.** And the GI50 [5]?
**A.** The GI50 was 67.1 µM (inactive).

**Q.** What about the GI50 [6] of the same compound?
**A.** Its GI50 is > 100 µM (inactive).

**Q.** And the GI50 [7]?
**A.** Its GI50 is > 100 µM (inactive).

**Q.** Which GI50 [8] does the source give for `CCN(CC)CCOc1ccc(C(O)(Cc2ccc(OC)cc2)c2ccccc2)cc1` (centres undefined) here?
**A.** Its GI50 is 24.5 µM (inactive).

**Q.** And the GI50 [2]?
**A.** The GI50 was 14 µM (inactive).

**Q.** And the GI50 [3]?
**A.** The GI50 was 18.3 µM (inactive).

**Q.** What about the GI50 [4] of the same compound?
**A.** The GI50 was 14.3 µM (inactive).

**Q.** And the GI50 [5]?
**A.** The GI50 was 14.9 µM (inactive).

**Q.** And the GI50 [6]?
**A.** Its GI50 is 3.24 µM (inactive).

**Q.** What about the GI50 [7] of the same compound?
**A.** Its GI50 is 17 µM (inactive).

**Q.** What does the source list for `CC#CC(OCC)(OCC)OCC`?
**A.** GI50 [1]: > 100 µM (inactive); GI50 [8]: > 100 µM (inactive); GI50 [2]: > 100 µM (inactive); GI50 [3]: > 100 µM (inactive); GI50 [4]: 20.6 µM (inactive); GI50 [5]: 25.8 µM (inactive); GI50 [6]: > 100 µM (inactive); GI50 [7]: > 100 µM (inactive)

**Q.** Which results are given for `COc1cccc(-c2cc(O)c3cc4c(cc3n2)OCO4)c1`?
**A.** GI50 [1]: 0.638 µM (active); GI50 [8]: 0.195 µM (active); GI50 [2]: 0.042 µM (active); GI50 [3]: 0.126 µM (active); GI50 [4]: 0.147 µM (active); GI50 [5]: 0.232 µM (active); GI50 [6]: 0.19 µM (active); GI50 [7]: 0.0598 µM (active); GI50 [9]: 0.442 µM (active)

**Q.** Which results are given for `CC(C)(C)OC(=O)N[C@H]1CC2(C=C(Cl)C(=O)C(Cl)=C2)OC1=O`?
**A.** GI50 [1]: 16.5 µM (inactive); GI50 [8]: 19.6 µM (inactive); GI50 [2]: 19.3 µM (inactive); GI50 [3]: 3.66 µM (inactive); GI50 [4]: 18.2 µM (inactive); GI50 [6]: 20.4 µM (inactive); GI50 [7]: 11.4 µM (inactive); GI50 [9]: 16.6 µM (inactive)

**Q.** For `CN[C@@H](C)[C@@H](N)c1ccccc1`, which GI50 [1] is on record?
**A.** The GI50 was > 100 µM (inactive).

**Q.** And the GI50 [8]?
**A.** The GI50 was > 100 µM (inactive).

**Q.** And the GI50 [3]?
**A.** The GI50 was > 100 µM (inactive).

**Q.** What about the GI50 [4] of the same compound?
**A.** The GI50 was > 100 µM (inactive).

**Q.** What about the GI50 [7] of the same compound?
**A.** Its GI50 is > 100 µM (inactive).

**Q.** And the GI50 [9]?
**A.** The GI50 was > 100 µM (inactive).

**Q.** With `COc1ccc(CC2NCCc3cc(OC)c(OC)cc32)cc1` (centres undefined) as the compound, how does the GI50 [1] read?
**A.** Its GI50 is > 100 µM (inactive).

**Q.** What about the GI50 [8] of the same compound?
**A.** Its GI50 is > 100 µM (inactive).

**Q.** And the GI50 [2]?
**A.** Its GI50 is > 100 µM (inactive).

**Q.** What about the GI50 [3] of the same compound?
**A.** The GI50 was > 100 µM (inactive).

**Q.** And the GI50 [4]?
**A.** Its GI50 is > 100 µM (inactive).

**Q.** And the GI50 [5]?
**A.** The GI50 was 59.6 µM (inactive).

**Q.** What about the GI50 [6] of the same compound?
**A.** The GI50 was > 100 µM (inactive).

**Q.** What about the GI50 [7] of the same compound?
**A.** Its GI50 is > 100 µM (inactive).

**Q.** What about the GI50 [9] of the same compound?
**A.** The GI50 was > 100 µM (inactive).

**Q.** Which results are given for `CS(=O)(=O)NNS(=O)(=O)c1ccccc1`?
**A.** GI50 [2]: > 100 µM (inactive); GI50 [3]: > 100 µM (inactive); GI50 [4]: > 100 µM (inactive); GI50 [5]: > 100 µM (inactive); GI50 [6]: > 100 µM (inactive); GI50 [7]: > 100 µM (inactive)

**Q.** For `CCCCCCCCCCCCCC(=O)O[C@H]1CC[C@H](NC(=O)[C@H](OC)[C@H](O)[C@@H](O)[C@H](O)/C=C/C(C)C)C(=O)N(C)C1` [BENGAMIDE B], which GI50 [1] is on record?
**A.** Its GI50 is 0.134 µM (active).

**Q.** What about the GI50 [8] of the same compound?
**A.** Its GI50 is 0.173 µM (active).

**Q.** What about the GI50 [2] of the same compound?
**A.** Its GI50 is 0.0164 µM (active).

**Q.** And the GI50 [3]?
**A.** Its GI50 is 0.00705 µM (active).

**Q.** And the GI50 [4]?
**A.** Its GI50 is < 0.0015 µM (active).

**Q.** And the GI50 [5]?
**A.** The GI50 was 0.00284 µM (active).

**Q.** What about the GI50 [6] of the same compound?
**A.** The GI50 was 0.00577 µM (active).

**Q.** What about the GI50 [7] of the same compound?
**A.** Its GI50 is 0.0114 µM (active).

**Q.** And the GI50 [9]?
**A.** The GI50 was < 0.0015 µM (active).

**Q.** Which results are given for `C[C@@H](NC1CCCC[C@H]1O)c1ccccc1` (some centres undefined)?
**A.** GI50 [1]: > 100 µM (inactive); GI50 [8]: > 100 µM (inactive); GI50 [2]: > 100 µM (inactive); GI50 [3]: > 100 µM (inactive); GI50 [4]: > 100 µM (inactive); GI50 [6]: > 100 µM (inactive)

**Q.** With `c1ccc2c(OCCSCCCCCCCCCCSCCOc3cccc4ccccc34)cccc2c1` as the compound, how does the GI50 [1] read?
**A.** Its GI50 is > 100 µM (inactive).

**Q.** What about the GI50 [8] of the same compound?
**A.** Its GI50 is > 100 µM (inactive).

**Q.** What about the GI50 [3] of the same compound?
**A.** The GI50 was > 100 µM (inactive).

**Q.** What about the GI50 [4] of the same compound?
**A.** Its GI50 is > 100 µM (inactive).

**Q.** What about the GI50 [5] of the same compound?
**A.** Its GI50 is > 100 µM (inactive).

**Q.** And the GI50 [6]?
**A.** The GI50 was > 100 µM (inactive).

**Q.** Which GI50 [8] does the source give for `Nc1ccc2nc(NCc3ccc(F)cc3)cnc2c1` here?
**A.** The GI50 was 75.7 µM (inactive).

**Q.** What about the GI50 [2] of the same compound?
**A.** The GI50 was > 100 µM (inactive).

**Q.** And the GI50 [4]?
**A.** Its GI50 is > 100 µM (inactive).

**Q.** And the GI50 [5]?
**A.** The GI50 was 75.5 µM (inactive).

**Q.** And the GI50 [6]?
**A.** The GI50 was > 100 µM (inactive).

**Q.** And the GI50 [7]?
**A.** The GI50 was > 100 µM (inactive).

**Q.** Which results are given for `C[Si](C)(C)/C(Br)=C\CCN1C(=O)CCC1=O`?
**A.** GI50 [1]: > 100 µM (inactive); GI50 [8]: > 100 µM (inactive); GI50 [2]: > 100 µM (inactive); GI50 [3]: > 100 µM (inactive); GI50 [4]: > 100 µM (inactive); GI50 [5]: > 35.2 µM (inactive); GI50 [6]: > 100 µM (inactive); GI50 [7]: > 100 µM (inactive); GI50 [9]: > 100 µM (inactive)
